Consider two compounds from patent US10308671B2, “Water-soluble derivatives of 3,5-diphenyl-diazole compounds” (Max-Planck-Gesellschaft zur Förderung, priority 2015, dated 2019).

SMILES strings stand for the structures. Values after ≈ are worked out from the molar mass of the structure shown. Like-named read-outs stand apart in the source and are kept apart here.

The nature of one data set: Solubility in water. Type of data set: physicochemical. The note with it: for solubility: water.
Data set [1] is described as follows: Water-solubility test (visual inspection). Type of data set: physicochemical. The procedure: The solubility of each compound in the water was evaluated by following protocol. Deionized water (1 ml) was added into glass tube containing 10 mg of compound. After shaking for 10 minutes the sample was visually inspected and formation of solution or suspension was documented.

Data set [2] is described as follows: Pharmacokinetics in rats after single oral dose: anle138b in PEG/Cremophor (Phase 1) vs sery433 in aqueous buffer (Phase 2). Type of data set: in vivo, male Sprague Dawley rats. The following applies: anle138b combined with excipients based on PEG/cremophor. As to the method: In the experiment, a single oral dose of anle138b in PEG/Cremophor (“Phase 1”) and sery433 in aqueous solution (“Phase 2”) at a nominal dose of 10 mg/kg were administered to male Sprague Dawley Rats. The experiments were conducted with three rats which are identified as “1M”, “2M” and “3M”.
This study was designed to assess the pharmacokinetics of anle138b and sery433 in male Sprague Dawley rats following single oral administration of anle138b (Phase 1) and sery433 (Phase 2). During Phase 1 and Phase 2 animals received each test compound, appropriately formulated, on one of two separate dose occasions in a cross over design. The dose level was 10 mg/kg for both compounds. The amount of sery433 was not corrected to the amount of anle138b which is present in the prodrug, so that due to the higher molecular weight of sery433 actually a lower amount of active agent was administered.
Phase 1: three naïve male CD rats were dosed orally with anle138b at a target dose level of 10 mg/kg.
Phase 2: one week later (wash out period), sery433 at a target dose of 10 mg/kg was administered orally to the same animals.
During each phase an individual serial plasma profile was drawn from each animal over a period of 24 hours after dosing.
The vehicle was prepared by weighing Cremophor RH40 (45% of final volume); PEG400 (35% of final volume) and Capryol 90 (20% of final volume). […]

`CN(C)c1ccc(-c2cc(-c3cccc(Br)c3)[nH]n2)cc1` [Anle253b, 5-(3-Bromophenyl)-3-(4-dimethylaminophenyl)-1H-pyrazole]: in the data set “Solubility in water”, the “solubility (in words)” value is on record as “even less soluble than anle138b”.

As for `Brc1cccc(-c2cc(-c3ccc4c(c3)OCO4)n[nH]2)c1` [anle138b, 5-(3-Bromophenyl)-3-(3,4-methylenedioxyphenyl)-1H-pyrazole], the “Result of solubility test” value in data set [1] (10 mg compound in 1 ml deionized water, shaking 10 minutes, visual inspection) was “insoluble”. Besides, in data set [1] (deionized water, water, thermodynamic from solid, read-out: amount soluble in water), the solubility at 10 min turned out to be 0.0686 µg/mL (≈ 0.2 µM). The solubility was determined as 0.2 µM in “Solubility in water” (read-out: solubility in water) and 0.07 µg/mL in “Solubility in water” (restates 0.2 μM, read-out: water-solubility). For the same compound, the “anle138b exposure relative to the exposure reached by administration of sery433” value in data set [2] is given as 25%.
